Data set [1] relates to PBMCs. As to the kind of experiment: LPS-induced TNFα/IL-8 release in PBMC cells. The data set is classed as cell-based. The settings on record: Homo sapiens, assay (b). Summed up:
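Healthy-donor PBMCs isolated by density gradient were pretreated with compound for 2 h, then stimulated with 1 ng/mL LPS (E. coli 0111:B4) for 24 h at 37° C., 5% CO2. IL-8 and TNFα in supernatants measured by sandwich ELISA.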

The subject of data set [2] is BDF1 mice. Briefly: TNBS-induced colitis in mice. The data set is classed as in vivo. The conditions noted are these: conducted over 2 days; vehicle corn oil/transcutol/maisine/cremophor ELP. The method, then: Non-fasted, 10-12 week old, male BDF1 mice are dosed by oral gavage twice daily with either vehicle (5 mL/kg), reference item (Budesonide 2.5 mg/kg) or test compound (1 or 5 mg/kg) one day before (Day −1) stimulation of the inflammatory response by treatment with 2,4,6-trinitrobenzenesulphonic acid (TNBS) (15 mg/mL in 50% ethanol/50% saline). On Day 0 of the study TNBS (200 μL) is administered intra-colonically via a plastic catheter with BID dosing of the vehicle, reference or test compound continuing for 2 or 4 days. During the study, animals are weighed every day and stool observations are made and recorded as a score, based on stool consistency. At the time of sacrifice on Day 2 (or Day 4), the large intestine is removed and the length and weight recorded. Sections of the colon are taken for histopathology scoring to determine disease severity.

In data set [3] the test system is Salmonella typhimurium TA98. Briefly: Bacterial reverse mutation screen, strain TA98. It is filed as cell-based. The conditions noted are these: presence or absence of S-9 mix; up to 1000 μg/plate analysable. The method, then: (§1) Studies were conducted by Sequani (Ledbury, Herefordshire, UK) to assess compounds of the invention for their ability to induce mutations in two histidine dependent auxotrophic mutants of Salmonella typhimurium, strains TA98 and TA100 in vitro.
(§2) The mutation screen was conducted using the plate incorporation method and was performed in both the presence and absence of S-9 mix (a liver post-mitochondrial fraction derived from the livers of Aroclor 1254 treated rats). The bacteria were exposed to test compounds dissolved in dimethylsulphoxide, which solvent was also used as the negative control. The dose levels used were 0.32, 1.6, 8, 40, 200, 1000 or 5000 μg/plate.
(§3) Precipitation was also noted in both strains at 1000 μg/plate in the presence and absence of S-9 mix.

Data set [4] can be described thus: Plasma pharmacokinetics in rats, single intravenous or oral administration. The data set is classed as in vivo. The conditions noted are these: male, Wistar, rat; for clearance: rats, intravenous 0.25 mg/kg. The procedure:
Studies were conducted by Sai Life Sciences (Hinjewadi, Pune, India) to investigate the plasma pharmacokinetics and total colon tissue distribution of compounds of the invention. In particular, pharmacokinetic studies were carried out in: • male C57BL/6 mice, following a single oral administration; and • male Wistar rats following a single intravenous or oral administration.

The subject of data set [5] is HT29 cells. Briefly: IL-1β-induced IL-8 release in HT29 cells. The settings on record: Homo sapiens, HT-29, assay (d), read-out: IC50 Values for Inhibition of Cytokine Release HT29 cells IL-8. It is filed as cell-based. The method, then:
HT29 cells, a human colon adenocarcinoma cell line, are plated in a 96 well plate (24 hr) and pre-treated with compounds at the desired concentration for 2 hours before addition of 5 ng/mL of IL-1β (Abcam) for 24 hours. Supernatants are harvested for IL-8 quantification by Sandwich ELISA (Duo-set, R&D System). The IC50 is determined from the dose response curve.

Data set [6] deals with Salmonella typhimurium TA100. As to the kind of experiment: Bacterial reverse mutation screen, strain TA100. The data set is classed as cell-based. The settings on record: presence or absence of S-9 mix; up to 1000 μg/plate analysable. The method, then: as §1, §2, §3
Data set [7] relates to PBMCs. As to the kind of experiment: Cell mitosis assay in PBMCs. It is filed as cell-based. The conditions noted are these: Homo sapiens, PBMC, 5 μg/mL. Summed up:
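Human PBMCs from healthy donors, density-gradient isolated, stimulated with 2% PHA 48 h, then exposed 20 h to test compounds; demecolcine 0.1 μg/mL added 2 h before harvest. Fixed/permeabilised cells stained for phospho-histone H3 and propidium iodide; mitotic lymphocytes counted by flow cytometry.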

In data set [8] the test system is SCID animals. Briefly: Adoptive transfer in mice (CD45RBhigh cells into SCID animals). It is filed as in vivo. The conditions noted are these: for % Inhibition: Table 6a, inhibition of the induction window between naïve and vehicle animals; for levels of pro-inflammatory cytokines in samples of colon tissue: adoptive transfer model. The procedure:
On Study day 0, female Balb/C mice are terminated and spleens obtained for CD45RB^high cell isolation (Using SCID IBD cell Separation protocol). Approximately 4×10^5 cells/mL CD45RB^high cells are then injected intraperitoneally (100 μL/mouse) into female SCID animals. On study day 14, mice are weighed and randomized into treatment groups based on body weight. On Day 14, compounds are administered BID, via oral gavage, in a peanut oil vehicle at the dose levels outlined below in Tables 6a and 6b and a dose volume of 5 mL/kg. Treatment continues until study day 42, at which point the animals are necropsied 4 hours after the morning administration. The colon length and weight are recorded and used as a secondary endpoint in the study as a measurement of colon oedema. The colon is then divided into six cross-sections, four of which are used for histopathology scoring (primary endpoint) and two are homogenised for cytokine analysis. Data shown is the % inhibition of the induction window between naïve animals and vehicle animals, where higher inhibition implies closer to the non-diseased, naïve, phenotype.

Setting [9] is: read-out: IC50 Values for Inhibition of Cytokine Release PBMCs IL-8.
[10] abbreviates: po, 5 mg/kg, read-out: Median plasma concentration.

Read-outs that look alike come from different tables or passages of the source.

The term IC50 denotes the concentration needed to halve the response being measured. A word on the inhibition: it is the share of the control response that was lost under treatment. As usually defined, the % Inhibition is the relative decrease from the control value, in per cent.

`COCCOCCOCCOc1cc(Nc2nccc(Oc3ccc(NC(=O)Nc4cc(C(C)(C)C)cc(NS(C)(=O)=O)c4OC)c4ccccc34)n2)cc(OC)c1` [Example 4, N-(5-(tert-Butyl)-2-methoxy-3-(3-(4-((2-((3-methoxy-5-(2-(2-(2-methoxyethoxy)ethoxy)-ethoxy)phenyl)amino)pyrimidin-4-yl)oxy)naphthalen-1-yl)ureido)phenyl)methanesulfonamide]: the figures for the 50% inhibitory concentration (IC50) in data set [1] (setting [9]), in data set [1] (read-out: IC50 Values for Inhibition of Cytokine Release PBMCs TNFα) and in data set [5] were 1.4 nM, 0.7 nM and 4.9 nM, respectively. Further, the “activity in TNBS-induced colitis (histopathology analysis)” value (“activity … (histopathology analysis)” below) in data set [2] is “displayed substantial activity”. The “increases in revertant colonies, strain TA98” value (“increases … strain TA98” below) in data set [3] was “no dose-related or statistically significant increases in revertant colonies”. The compound further yielded a clearance in data set [4] of 7.9 mL/min/kg. Further, the “increases in revertant colonies, strain TA100” value (“increases … strain TA100” for short) in data set [6] is listed as “no dose-related or statistically significant increases in revertant colonies”. The inhibition at 5 µg/mL in data set [7] came out at 43%. For the same compound, the “% Inhibition” value in data set [8] (0.3 mg/kg BID oral gavage) was 62%; in data set [8] (1 mg/kg BID oral gavage) it was 110%. Also, the “levels of pro-inflammatory cytokines in samples of colon tissue” value (shortened to “levels of pro-inflammatory cytokines”) in data set [8] is reported as “significantly reduced”.
As to `C#Cc1cc(Nc2nccc(Oc3ccc(NC(=O)Nc4cc(C(C)(C)C)cc(NS(C)(=O)=O)c4OC)c4ccccc34)n2)cc(C(=O)NCCOCCOCCOC)c1` [Example 16, 3-((4-((4-(3-(5-(tert-Butyl)-2-methoxy-3-(methylsulfonamido)phenyl)ureido)naphthalen-1-yl)oxy)pyrimidin-2-yl)amino)-5-ethynyl-N-(2-(2-(2-methoxyethoxy)ethoxy)ethyl)benzamide], the IC50 in data set [1] (setting [9]) was determined as 1.5 nM. The “activity … (histopathology analysis)” value in data set [2] was “displayed substantial activity”. In addition, the “increases … strain TA98” value in data set [3] was “no dose-related or statistically significant increases in revertant colonies”. In data set [4] (setting [10]), the concentration at 0.25 h was found to be 0 ng/mL, the concentration at 0.5 h worked out at 0 ng/mL, the concentration at 1 h came to 0 ng/mL and the concentration at 2 h is 0 ng/mL. In data set [4] (setting [10]), the concentration at 4 h came out at 0 ng/mL, the concentration at 6 h was 0 ng/mL, the concentration at 8 h came out at 0 ng/mL and the concentration at 12 h was 0 ng/mL. For the same compound, in data set [4] (setting [10]), the concentration at 24 h worked out at 0 ng/mL. This compound also showed a clearance in data set [4] of 4.8 mL/min/kg. Besides, in data set [5], the half-maximal inhibitory concentration (IC50) was determined as 8 nM. The “increases … strain TA100” value in data set [6] is “no dose-related or statistically significant increases in revertant colonies”. Moreover, 5 µg/mL produced 20.5% inhibition in data set [7]. Besides, the “levels of pro-inflammatory cytokines” value in data set [8] is listed as “significantly reduced”. Also, the “activity in adoptive transfer model (ratios of colon weight to length)” value in data set [8] (end of the study) was “displayed significant activity”.
As to `COc1cc(Nc2cc(Oc3ccc(NC(=O)Nc4cc(C(C)(C)C)cc(NS(C)(=O)=O)c4OC)c4ccccc34)ccn2)cc(C(=O)NCCN2CCOCC2)c1` [Example 27, 3-((4-((4-(3-(5-(tert-Butyl)-2-methoxy-3-(methylsulfonamido)phenyl)ureido)naphthalen-1-yl)oxy)pyridin-2-yl)amino)-5-methoxy-N-(2-morpholinoethyl)benzamide], the half-maximal inhibitory concentration (IC50) in data set [1] (setting [9]) was 1.9 nM; in data set [5] it was 8.3 nM. For the same compound, the “activity … (histopathology analysis)” value in data set [2] is “displayed substantial activity”. Moreover, the “increases … strain TA98” value in data set [3] is given as “no dose-related or statistically significant increases in revertant colonies”. Further, in data set [4], the clearance is 7.1 mL/min/kg. Besides, the “increases … strain TA100” value in data set [6] is “no dose-related or statistically significant increases in revertant colonies”. Further, the inhibition at 5 µg/mL in data set [7] turned out to be 49.8%. The “% Inhibition” value in data set [8] (3 mg/kg BID oral gavage) stood at 99%. For the same compound, the “levels of pro-inflammatory cytokines” value in data set [8] was “significantly reduced”.
